# Reference: patent US10633635B2, “Methods for production of functional beta cells” (Janssen Biotech, Inc., priority 2016, dated 2020)
# Entries after “also recorded” stand apart in the source; their conditions may differ. Structures can show the parent of a compound that is named as a salt.
# Assays:
# UCN3 = assay: Small molecule screen: qRT-PCR of UCN3 expression at Stage 7 in H1-hESC-derived ALI clusters; type: cell-based, human; settings: S7D7 ALI clusters; for UCN3 up-regulation during Stage 7: Stage 7 no ALK5, low T3, ZM, H, NAC, FI, BLAR001, 5 μM AZT, 1 μM or 10 μM DEZA, FIG. 2B; for expression of UCN3 as compared to S6D7, or untreated or DMSO treated cultures at Stage 7: 2 μM small molecule added at Stage 7, quantitative real-time PCR, FIGS. 1E-1H
# Description: (§1) The following example is directed to identification of small molecules that can enhance the maturation status of a pancreatic beta cell, via increasing the gene expression of mature beta cell markers including MAFA (v-maf avian musculoaponeurotic fibrosarcoma oncogene homolog A) or UCN3 (urocortin 3). […] Y-compound was added to only during the first 24 hours post-seeding.
# (§2) For FIGS. 1A to 1H the cultures were differentiated using the following protocol.
# (§3) In general, the embodiments herein differentiate human pluripotent cells substantially as described above in Stages 1-7. For Stage 7, various small molecules were added and their effect was evaluated by quantitative real-time PCR. These small molecules were evaluated and 2 μM of each was added at Stage7.
# (§4) Primer details are outlined in Table III.
# MAFA [1] = assay: Small molecule screen: qRT-PCR of MAFA expression at Stage 7 in H1-hESC-derived ALI clusters; type: cell-based, human; settings: Stage 7 no ALK5, low T3, ZM, H, NAC, FI, BLAR001; 5 μM AZT; 1 μM or 10 μM DEZA; S7D7 ALI clusters; FIG. 2A
# MAFA or UCN3 = assay: Small molecule screen at Stage 7: induction of MAFA or UCN3 expression; type: cell-based, human; settings: Stage 7 at 20 mM D-glucose plus BME Vitamin supplement; 79 small molecules of Table XI
# Description: as §1, §2
# as §3, with “PCR. […]” for “PCR.”
# as §4
# MAFA [2] = assay: Small molecule screen: qRT-PCR of MAFA expression at Stage 7 in H1-hESC-derived ALI clusters; type: cell-based, human; settings: 2 μM small molecule added at Stage 7; S7D7 ALI clusters; quantitative real-time PCR; FIGS. 1A-1D
# Description: as §1, §2, §3, §4
# INHBB = settings: S7D7 ALI clusters; 10 μM ALK5 inhibitor II in Stage 7; FIG. 3A
# Description: Cells of the human embryonic stem cell line H1 (“H1-hESC”) (with EZ8 media at passage 28 were seeded as single cells at 0.094×10^6 cells/cm^2 on […] ™ at a 1:30 dilution coated dishes in a media of Dulbecco's Modified Eagle's Medium Nutrient mixture F-12 (“DMEM-F12”), GlutaMAX™ in a 1:100 dilution (“1× concentration”), 0.25 mM ascorbic acid, 100 ng/ml fibroblast growth factor 2 (“FGF2”), 1 ng/ml of transforming growth factor beta (“TGFβ”), insulin-transferrin-selenium-ethanolamine (“ITS-X”) at a 1:100 dilution, 2% fatty-acid free bovine serum albumin (“FAF-BSA”), and 20 ng/ml of insulin-like growth factor-1 (“IGF-1”), supplemented with 10 μM of Rock Inhibitor Y-27632 (“Y-compound”). Forty-eight hours post-seeding, the cultures were washed in incomplete PBS (phosphate buffered saline without magnesium or calcium).
# During Stages 1 through 4 of the protocol, cultures were maintained on planar adherent cultures. • a. […]
# human islets = assay: Glucose-stimulated insulin secretion (perifusion, C-PEPTIDE ELISA); type: cell-based; settings: 16.7 mM D-glucose ± 100 ng/ml Exendin-4, FIG. 8D
# Description: For quantification of glucose-dependent insulin secretion, Stage 7 ALI clusters, Aggrewell™ clusters and matured human islets were characterized by a cell perifusion system (BioRep Technologies, Miami, Fla., Catalog No. PERI4-02). Briefly, to normalize insulin secretion to a baseline, ALI/Aggrewell™ clusters or human islets were transferred into warm (37° C.) Kreb's Buffer (Table IX). Cells were loaded into perifusion chambers (BioRep Technologies, Catalog No. PERI-CHAMBER), and were continuously perfused (flow rate of 100 μl/min) with […] sequential Kreb's buffers supplemented with either: (i) 3 mM D-glucose; (ii) 16.7 mM D-glucose±100 ng/ml Exendin-4 (“Ex4”); and (iii) 25 mM KCl with 3 mM D-glucose. Specific perifusion protocols are indicated in each figure. Perfusate samples were collected every minute, and C-PEPTIDE protein levels (units in ng/ml) detected by a C-PEPTIDE ELISA (Mercodia, Uppsala, Sweden, Catalog No. 10-1136-01).
Compound,expression of the MAFA or UCN3 (MAFA or UCN3),"expression of MAFA as compared to S6D7, or untreated or DMSO treated cultures at Stage 7 (MAFA [2])",also measured
Nc1nccc2c1ncn2[C@@H]1C=C(CO)[C@@H](O)[C@H]1O [3-Deazaneplanocin A],,,UCN3 up-regulation during Stage 7 (UCN3): but not UCN3; MAFA up-regulation during Stage 7 (MAFA [1]): effective up-regulator of MAFA
Nc1ncn([C@@H]2O[C@H](CO)[C@@H](O)[C@H]2O)c(=O)n1 [5-Azacytidine],induced expression,,"expression of UCN3 as compared to S6D7, or untreated or DMSO treated cultures at Stage 7 (UCN3): significantly upregulated; also recorded: increased; UCN3 up-regulation during Stage 7 (UCN3): up-regulator"
COc1cc2c(cc1OCCCN1CCCC1)N=C(N)C21CCC1 [A366],,significantly upregulated,
"Cc1cccc(-c2n[nH]cc2-c2ccc3ncccc3n2)n1 [ALK5 inhibitor II, 2-(3-(6-Methylpyridin-2-yl)-1H-pyrazol-4-yl)-1,5-naphthyridine]",,,INHBB expression relative to human islets (INHBB): enriched above the expression seen in human islets
CC1=NN(c2ccc(C(=O)O)cc2)C(=O)C1=Cc1ccc(-c2cc(C)c(C)cc2[N+](=O)[O-])o1 [C646],induced expression,,
CC(=O)Nc1ccc(C(=O)Nc2ccccc2N)cc1 [CI994],,,"expression of UCN3 as compared to S6D7, or untreated or DMSO treated cultures at Stage 7 (UCN3): significantly upregulated; also recorded: increased"
O=C(O[C@@H]1Cc2c(O)cc(O)cc2O[C@@H]1c1cc(O)c(O)c(O)c1)c1cc(O)c(O)c(O)c1 [EGCG],induced expression,,
O=c1c(O)c(-c2ccc(O)c(O)c2)oc2cc(O)ccc12 [Fisetin],induced expression,,
COc1ccc(S(=O)(=O)ON=C2C=C(C)C(=O)C(C)=C2)cc1 [L002],induced expression,,
O=c1cc(N2CCNCC2)oc2c(-c3ccccc3)cccc12 [LY303511],,significantly upregulated,
Nc1nc(OCc2cc(Br)cs2)c2[nH]cnc2n1 [Lomeguatrib],induced expression,,
Cn1c(/C=C/C(=O)NO)ccc1/C=C/C(=O)c1cccc(F)c1 [MC1568],,significantly upregulated,
Cc1cc(/N=N/c2ccc(S(=O)(=O)Nc3ccccn3)cc2)c(N)cc1O [MS436],,significantly upregulated,
O=C1c2c(O)ccc(O)c2C(=O)c2c(NCCNCCO)ccc(NCCNCCO)c21 [Mitoxantrone dihydrochloride],induced expression,,
CC(=O)NCC(=O)N1[C@@H]2CC[C@H]1c1ccc(Nc3ncc(C(F)(F)F)c(NC4CCC4)n3)cc12 [PF03814735],,significantly upregulated,
COc1ccccc1S(=O)(=O)Nc1ccc2c(c1)CN(C)C(=O)N2 [PFI1],,significantly upregulated,
O=C(CCCCCCC(=O)Nc1cccnc1)NO [Pyroxamide],,,"expression of UCN3 as compared to S6D7, or untreated or DMSO treated cultures at Stage 7 (UCN3): significantly upregulated; also recorded: increased"
CCn1c(-c2nonc2N)nc2cncc(CNC3CCNCC3)c21 [SB747651A dihydrochloride],,significantly upregulated,
CC(C)N(CCCNC(=O)Nc1ccc(C(C)(C)C)cc1)C[C@H]1O[C@@H](n2cc(Br)c3c(N)ncnc32)[C@H](O)[C@@H]1O [SGC0946],induced expression,,
Cc1cc(Nc2ccc(NC(=O)c3ccc(Nc4ccnc5ccccc45)cc3)cc2)nc(N)n1 [SGI 1027],induced expression,,
O=C(CCl)Nc1ccc(S(=O)(=O)c2ccc(NC(=O)CCl)cc2)cc1 [TC-E5003],,significantly upregulated,
Cn1nnc2c(C(N)=O)ncn2c1=O [Temozolomide],induced expression,,
COc1cc2c(NC3CCN(C(C)C)CC3)nc(C3CCCCC3)nc2cc1OCCCN1CCCC1 [UNC0638],,significantly upregulated,
COc1cc2c(NC3CCN(C(C)C)CC3)nc(N3CCC(F)(F)CC3)nc2cc1OCCCN1CCCC1 [UNC0642],,significantly upregulated,
COc1cc2c(NC3CCN(C4CCCCC4)CC3)nc(N3CCCN(C(C)C)CC3)nc2cc1OCCCN1CCCCC1 [UNC0646],,significantly upregulated,
COc1cc2c(Nc3ccc(NC(=O)c4ccccc4)cc3)ncnc2cc1OCCCN1CCOCC1 [ZM447439],,significantly upregulated,
O=c1ncccn1[C@@H]1O[C@H](CO)[C@@H](O)[C@H]1O [Zebularine],induced expression,,
"Exendin-4: insulin secretagogue, 100 ng/ml in perifusion buffer (Sigma-Aldrich E7144)",,,amplitude of the GSIS response (human islets): did not increase the amplitude of the GSIS response
